In patent US20220296547A1, “METHODS AND COMPOSITIONS FOR TREATMENT OF DISEASES” (Tranexamic Technologies, LLC, priority 2020, published 2022):
“Also recorded” adds a separate entry of the source.

Columns and labels:
[1] = tested on: SH-SY5Y neuroblastoma cells; assay: MTT cell viability assay; type: cell-based
[2] = tested on: HCI-001 breast cancer cells; assay: MTT cell viability assay; type: cell-based
MDA-MB-468 cells = assay: MTT cell viability assay (FIG. 2); type: cell-based, human; conditions: MDA-MB-468, known to overexpress MYC
[3] = tested on: MCF10A cells overexpressing the MYC oncogene; assay: MTT assay, MYC overexpressing versus vector control cells; type: cell-based, human
Description: (§1) The N-Myc-related gene c-Myc, or MYC, is frequently overexpressed in many human cancers, including breast cancer.

[4] = tested on: broad array of cancer and epithelial cell lines; assay: MTT cell viability assays with increasing concentrations (FIG. 2, FIG. 5); type: cell-based
[5] = tested on: BT474, MDA-MB-468, B16, KPPC, HMEC and HaCaT cell lines; assay: DNA synthesis (tritiated thymidine incorporation), cell line panel; type: cell-based; conditions: 24 h treatment, 0 to 8%, DNA synthesis during a 3 h window
[6] = tested on: BT474 breast cancer cells; assay: DNA synthesis (tritiated thymidine incorporation); type: cell-based; conditions: 24 h treatment, 0 to 8%
[7] = tested on: human mammary epithelia cells (HMEC); assay: DNA synthesis (tritiated thymidine incorporation); type: cell-based; conditions: HMEC non-transformed epithelial line; 24 h
[8] = tested on: human keratinocytes (HaCaT); assay: DNA synthesis (tritiated thymidine incorporation); type: cell-based; conditions: HaCaT non-transformed epithelial line; 24 h
CDCP1 cleavage = CDCP1 cleavage in MDA-MB-231 breast cancer cell extracts; type: cell-based
Description: (§2) None of the treatments altered the overall pattern of protein tyrosine phosphorylation. […] Cleavage of CDCP1 may play a role in driving tumor invasion given the preferential binding of the cleaved form of CDCP1 with cell adhesion molecules such as beta1-integrin and E-cadherin.

PAI-1 = PAI-1 levels in MDA-MB-231 breast cancer cell extracts; type: cell-based; conditions: FIG. 6
Description: as §2

[9] = tested on: histone lysine acetylation; assay: Histone lysine acetylation in BT474 cells; type: cell-based
[10] = tested on: epidermal growth factor receptor (EGFR); assay: EGFR expression (FIG. 8); type: cell-based
[11] = tested on: lysine acetylation of cellular proteins; assay: Lysine acetylation of cellular proteins and histones (FIG. 8); type: cell-based
[12] = tested on: MDA-MB-468 breast cancer cells; assay: Markers of the mitotic phase (cyclin B, MPM2); type: cell-based, human; conditions: 1%
[13] = tested on: BT474 breast cancer cells; assay: Markers of the mitotic phase (cyclin B, MPM2); type: cell-based; conditions: 1%
cell cycle = assay: Cell cycle study; type: cell-based
[14] = tested on: protein lysine acetylation in a second breast cancer cell line; assay: Protein lysine acetylation over time (FIG. 10); type: cell-based; conditions: as early as 4 h
histone H3 = assay: Acetylation of histone H3 on lysine 27 and lysine 9; type: cell-based
[15] = tested on: HCI-012/LVM2/LR10 drug-resistant, HER2+, metastatic breast cancer; assay: Breast tumor growth in patient-derived model; type: in vivo, mice; conditions: orally, once daily, 375 mg/kg
[16] = tested on: AKT in MYC overexpressing MCF10A cells; assay: AKT activity (phospho-AKT substrate antibody); type: cell-based, human
Description: as §1

[17] = tested on: AKT in MDA-MB-468 human breast cancer cell line; assay: AKT activity (phospho-AKT substrate antibody); type: cell-based
Description: as §1

S6K1 (p70s6k) = assay: Ribosomal S6 protein phosphorylation; type: cell-based
Description: as §1

STAT3 = STAT3 phosphorylation; type: cell-based
Description: as §1

MDA-MB 468 cells = assay: MTT assay with tranexamic acid derivatives; type: cell-based, human; conditions: MDA-MB 468, 72 h, increasing concentrations
Procedure: MDA-MB 468 cells were plated at 6,250 cells per well in a 96-well plate and incubated overnight at 37° C. […] Cell viability was evaluated using an MTT assay.

[18] = tested on: programmed death-ligand 1 (PD-L1); assay: PD-L1 expression (FIG. 18); type: cell-based; conditions: high concentration (2%)
plasmin [19] = target: T1, plasmin (Homo sapiens, UniProt P00747); conditions: accepted value from studies; cited from earlier work
Target sequence in this assay (P00747 20-810 limits assumed): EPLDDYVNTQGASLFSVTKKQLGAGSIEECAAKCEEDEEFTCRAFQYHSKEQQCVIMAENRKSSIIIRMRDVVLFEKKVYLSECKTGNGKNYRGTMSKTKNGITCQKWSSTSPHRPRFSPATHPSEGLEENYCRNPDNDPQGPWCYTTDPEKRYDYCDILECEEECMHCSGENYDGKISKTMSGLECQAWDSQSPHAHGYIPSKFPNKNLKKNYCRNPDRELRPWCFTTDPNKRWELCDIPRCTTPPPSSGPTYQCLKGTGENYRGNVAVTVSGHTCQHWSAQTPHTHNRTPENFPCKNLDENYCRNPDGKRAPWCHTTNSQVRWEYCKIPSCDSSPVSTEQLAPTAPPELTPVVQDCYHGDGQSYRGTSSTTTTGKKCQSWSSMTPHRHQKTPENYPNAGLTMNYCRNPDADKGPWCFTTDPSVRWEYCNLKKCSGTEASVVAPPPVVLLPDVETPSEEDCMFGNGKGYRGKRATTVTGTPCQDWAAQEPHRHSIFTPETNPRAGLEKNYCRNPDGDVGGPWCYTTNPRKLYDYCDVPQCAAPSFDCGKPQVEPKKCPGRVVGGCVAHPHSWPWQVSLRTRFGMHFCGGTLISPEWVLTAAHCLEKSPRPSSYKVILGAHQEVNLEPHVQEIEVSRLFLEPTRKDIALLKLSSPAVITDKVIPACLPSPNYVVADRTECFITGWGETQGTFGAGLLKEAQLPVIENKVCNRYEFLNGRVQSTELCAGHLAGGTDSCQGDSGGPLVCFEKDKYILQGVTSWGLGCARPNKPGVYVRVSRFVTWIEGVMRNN

[20] = intravenous doses of 80-100 mg/kg and above, e.g. during heart surgery; cited from earlier work
non-melanoma skin cancer = conditions: mice, long-term UV irradiation; cited from earlier work
plasmin [21] = target: T1, plasmin; conditions: cited from earlier work
Target sequence in this assay (P00747 581-810 limits assumed, species assumed): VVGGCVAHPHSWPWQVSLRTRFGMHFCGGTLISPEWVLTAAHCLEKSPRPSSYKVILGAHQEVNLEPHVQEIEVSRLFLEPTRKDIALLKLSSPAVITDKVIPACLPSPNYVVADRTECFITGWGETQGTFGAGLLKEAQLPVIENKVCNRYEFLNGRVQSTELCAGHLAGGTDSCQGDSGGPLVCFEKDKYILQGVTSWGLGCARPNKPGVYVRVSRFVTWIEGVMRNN
Target sequence in this assay (P00747 97-580 partner limits assumed, species assumed): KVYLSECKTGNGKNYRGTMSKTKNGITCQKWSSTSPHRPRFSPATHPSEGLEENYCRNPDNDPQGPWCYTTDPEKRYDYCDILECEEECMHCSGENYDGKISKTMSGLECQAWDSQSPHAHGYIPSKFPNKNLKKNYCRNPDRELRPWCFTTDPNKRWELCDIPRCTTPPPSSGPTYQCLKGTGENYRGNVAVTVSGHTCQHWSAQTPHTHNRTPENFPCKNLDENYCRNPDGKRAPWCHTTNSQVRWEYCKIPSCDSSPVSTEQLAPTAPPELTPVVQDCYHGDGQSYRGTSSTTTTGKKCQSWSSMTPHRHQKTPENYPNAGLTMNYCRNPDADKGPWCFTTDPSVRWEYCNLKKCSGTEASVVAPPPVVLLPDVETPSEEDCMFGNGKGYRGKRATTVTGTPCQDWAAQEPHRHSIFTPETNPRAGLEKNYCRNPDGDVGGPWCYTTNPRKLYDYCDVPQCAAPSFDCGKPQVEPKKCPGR

[22] = target: p300 acetyltransferase enzyme (Homo sapiens, UniProt Q09472); assay: p300 acetyltransferase enzyme assays (immunoblot H3K9Ac / H3K27Ac); conditions: two sets of enzyme assays
p300 acetyltransferase enzyme, sequence (Q09472 whole entry): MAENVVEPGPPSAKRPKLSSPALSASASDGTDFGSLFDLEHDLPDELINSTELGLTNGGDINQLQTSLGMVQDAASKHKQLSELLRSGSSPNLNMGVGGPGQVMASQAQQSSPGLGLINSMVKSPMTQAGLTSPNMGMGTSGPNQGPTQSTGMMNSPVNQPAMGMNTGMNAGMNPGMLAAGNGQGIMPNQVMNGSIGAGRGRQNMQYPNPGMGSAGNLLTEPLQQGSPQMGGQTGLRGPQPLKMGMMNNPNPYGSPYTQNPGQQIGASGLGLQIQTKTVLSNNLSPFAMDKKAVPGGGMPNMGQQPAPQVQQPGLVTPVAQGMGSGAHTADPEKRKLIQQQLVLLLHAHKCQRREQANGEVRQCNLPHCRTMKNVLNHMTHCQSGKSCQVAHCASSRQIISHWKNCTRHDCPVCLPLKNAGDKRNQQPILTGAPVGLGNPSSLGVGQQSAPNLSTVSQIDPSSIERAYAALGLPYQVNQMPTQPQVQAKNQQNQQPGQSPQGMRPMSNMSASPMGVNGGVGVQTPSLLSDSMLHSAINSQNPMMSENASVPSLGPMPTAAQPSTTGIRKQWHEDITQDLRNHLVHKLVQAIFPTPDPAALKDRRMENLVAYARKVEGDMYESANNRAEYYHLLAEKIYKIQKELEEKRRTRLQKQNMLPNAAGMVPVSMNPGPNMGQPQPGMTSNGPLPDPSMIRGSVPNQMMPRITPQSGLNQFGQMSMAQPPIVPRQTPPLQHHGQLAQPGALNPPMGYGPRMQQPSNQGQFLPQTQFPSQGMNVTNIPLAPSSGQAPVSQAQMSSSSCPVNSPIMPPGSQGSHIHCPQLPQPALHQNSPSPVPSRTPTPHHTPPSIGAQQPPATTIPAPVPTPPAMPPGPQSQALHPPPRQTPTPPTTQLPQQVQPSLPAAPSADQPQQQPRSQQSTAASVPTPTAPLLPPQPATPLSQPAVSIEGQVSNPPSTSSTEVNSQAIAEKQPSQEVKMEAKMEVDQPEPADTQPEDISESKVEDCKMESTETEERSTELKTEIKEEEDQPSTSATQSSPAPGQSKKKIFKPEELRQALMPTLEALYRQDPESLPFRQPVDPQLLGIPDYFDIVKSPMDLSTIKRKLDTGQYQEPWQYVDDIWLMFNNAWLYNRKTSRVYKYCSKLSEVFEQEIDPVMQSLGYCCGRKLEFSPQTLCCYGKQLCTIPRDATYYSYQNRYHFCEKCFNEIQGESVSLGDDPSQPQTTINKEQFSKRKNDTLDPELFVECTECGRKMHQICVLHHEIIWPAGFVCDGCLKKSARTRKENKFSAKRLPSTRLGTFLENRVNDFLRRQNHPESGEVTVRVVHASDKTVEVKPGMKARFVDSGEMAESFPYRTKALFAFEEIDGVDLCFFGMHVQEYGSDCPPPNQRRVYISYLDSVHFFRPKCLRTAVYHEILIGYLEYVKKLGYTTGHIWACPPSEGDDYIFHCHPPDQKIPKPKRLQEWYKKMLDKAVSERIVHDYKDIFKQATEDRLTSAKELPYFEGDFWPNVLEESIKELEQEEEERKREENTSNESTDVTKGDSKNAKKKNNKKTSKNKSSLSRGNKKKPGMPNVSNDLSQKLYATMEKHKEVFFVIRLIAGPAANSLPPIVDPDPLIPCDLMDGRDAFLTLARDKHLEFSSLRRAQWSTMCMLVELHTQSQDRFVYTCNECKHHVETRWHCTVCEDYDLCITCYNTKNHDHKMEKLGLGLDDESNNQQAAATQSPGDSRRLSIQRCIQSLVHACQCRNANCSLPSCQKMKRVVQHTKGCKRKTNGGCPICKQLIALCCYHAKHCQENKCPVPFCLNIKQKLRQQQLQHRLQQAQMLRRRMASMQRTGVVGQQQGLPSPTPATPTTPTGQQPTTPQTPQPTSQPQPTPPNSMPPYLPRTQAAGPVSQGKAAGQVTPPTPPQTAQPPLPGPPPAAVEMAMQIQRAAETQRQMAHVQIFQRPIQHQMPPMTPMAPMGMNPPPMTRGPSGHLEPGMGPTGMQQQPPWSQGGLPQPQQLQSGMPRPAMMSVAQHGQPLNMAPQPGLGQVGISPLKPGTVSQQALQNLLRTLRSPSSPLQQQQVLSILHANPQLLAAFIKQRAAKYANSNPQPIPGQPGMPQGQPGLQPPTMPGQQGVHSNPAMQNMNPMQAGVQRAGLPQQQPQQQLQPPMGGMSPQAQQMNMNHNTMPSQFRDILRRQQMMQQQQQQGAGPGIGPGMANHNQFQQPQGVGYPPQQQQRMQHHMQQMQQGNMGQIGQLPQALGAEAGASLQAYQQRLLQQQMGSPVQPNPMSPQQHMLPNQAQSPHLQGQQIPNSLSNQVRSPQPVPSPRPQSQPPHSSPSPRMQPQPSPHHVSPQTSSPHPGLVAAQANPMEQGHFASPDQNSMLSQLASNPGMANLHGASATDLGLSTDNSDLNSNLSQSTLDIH
Procedure: This is measured by immunoblotting with antibodies that specifically recognize histone 3 (H3) acetylated (Ac) on lysine (K) number 9 or 27.

NC[C@H]1CC[C@H](C(=O)O)CC1 [tranexamic acid]
cell viability (MTT) ([1]; SH-SY5Y neuroblastoma cells): decreased viability
sensitivity compared to other cell lines tested (MTT) ([1]; SH-SY5Y, N-Myc amplified / MYC overexpressed): most sensitive
cell viability (MTT) [2]: decreased viability
sensitivity compared to other cell lines tested (MTT) (MDA-MB-468 cells): most sensitive
sensitivity of MYC overexpressing cells versus unaltered control cells (MTT) [3]: significant increase in tranexamic acid sensitivity; also recorded: significantly more sensitive
cell viability (MTT) across cell lines [4]: all lines are inhibited; also recorded: dose dependently suppresses the viability
DNA synthesis / cell proliferation across cell lines [5]: suppresses the proliferation; also recorded: affected all the cell lines examined
sensitivity of DNA synthesis compared to other cell lines [6]: most sensitive to low concentrations
proliferation (DNA synthesis) [7]: affects the proliferation
proliferation (DNA synthesis) [8]: affects the proliferation
CDCP1 cleavage at lowest concentration (CDCP1 cleavage; 0.5%): good inhibition of CDCP1 cleavage
CDCP1 cleavage (CDCP1 cleavage; MDA-MB-231 breast cancer cell extracts): blocks CDCP1 cleavage
PAI-1 levels / expression (PAI-1): without increasing PAI-1 levels
effect on histone acetylation in presence of the histone deacetylase inhibitor SAHA [9]: did not overcome the effects of the histone deacetylase inhibitor SAHA
histone lysine acetylation ([9]; particularly at higher concentrations): suppressed histone lysine acetylation
expression of EGFR ([10]; FIG. 8): decreases expression
EGFR downregulation ([10]; FIG. 8, as worded): did not increase
histone acetylation compared with vehicle treatment [11]: suppressed histone acetylation
levels of lysine acetylation of cellular proteins [11]: reduces the levels of lysine acetylation
markers of the mitotic phase of the cell cycle (cyclin B, MPM2) [12]: elevates markers of the mitotic phase
markers of the mitotic phase of the cell cycle (cyclin B, MPM2) [13]: elevates markers of the mitotic phase
cell cycle arrest (cell cycle): causes G2/M-phase cell cycle arrest
protein lysine acetylation [14]: reduces protein lysine acetylation
acetylation of histone H3 on lysine 9 (histone H3; carried out by other enzymes): not on lysine 9
acetylation of histone H3 on lysine 27 (histone H3; carried out by p300 and CBP): blocks acetylation
tumor growth versus vehicle (water) [15]: suppresses tumor growth more effectively than a vehicle
AKT activity [16]: suppressed AKT activity
AKT activity [17]: suppressed AKT activity
p70s6k inhibition (S6K1 (p70s6k)): inhibits p70s6k
phosphorylation of the ribosomal S6 protein (S6K1 (p70s6k)): reduced phosphorylation of the ribosomal S6 protein
STAT3 phosphorylation on Serine 727 (STAT3): not Serine 727
STAT3 phosphorylation on Tyrosine 705 (STAT3): decreases STAT3 phosphorylation on Tyrosine 705
cell viability (MTT) (MDA-MB 468 cells): reduced MDA-MB 468 cell viability
PD-L1 expression [18]: did not
blood concentration required to inhibit formation of plasmin and provide antifibrinolysis (plasmin [19]): 10 to 20 µg/mL
seizure risk [20]: risk of seizure
non-melanoma skin cancer development (non-melanoma skin cancer): reduced
plasma MMP-9 and IL-6, skin plasmin, CC chemokine 2, macrophages, STAT3, cyclin D and VEGF-A (non-melanoma skin cancer): suppresses increases
plasmin protease activity (plasmin [21]): directly inhibits plasmin protease activity
p300 acetyltransferase activity [22]: inhibits p300 activity
